Assay results as given in patent EP0378255B1, “2-Aminopyrimidinone derivatives” (JANSSEN PHARMACEUTICA N.V., priority 1989, dated 1990).
Where two headings read alike, the source gives them in different places.

Key:
compound 48/80 [1] = test: Gastric Lesions induced by compound 48/80 in rats (serotonin antagonism); type: in vivo; settings: Rattus norvegicus, read-out: Compound 48/80 tests ED₅₀ values Gastric lesions
Procedure: (§1) Int. Pharmacodyn. Ther., 227, 238-253, 1977. Further the activity of the subject compounds as serotonin antagonists is evidenced by the experimental data obtained in the "Gastric Lesions induced by compound 48/80 in rats" test, described in U.S.-4,335,127. […] All tests were carried out following the procedures described in the cited references and the experimental data are shown in Table 8.

Norepinephrine = test: Combined Apomorphine, Tryptamine and Norepinephrine (ATN) test in rats: norepinephrine part; type: in vivo; settings: Rattus norvegicus; read-out: Combined ATN test in rats ED₅₀ values (NOR)
Procedure: as §1

compound 48/80 [2] = test: Protection of Rats from compound 48/80 induced lethality (antihistaminic activity); type: in vivo; settings: Rattus norvegicus, read-out: Compound 48/80 tests ED₅₀ values Lethality
Procedure: as §1

Apomorphine = test: Combined Apomorphine, Tryptamine and Norepinephrine (ATN) test in rats: apomorphine part; type: in vivo; settings: Rattus norvegicus; read-out: Combined ATN test in rats ED₅₀ values (APO)
Tryptamine = test: Combined Apomorphine, Tryptamine and Norepinephrine (ATN) test in rats: tryptamine part; type: in vivo; settings: Rattus norvegicus
Wistar rats = settings: separated group of 8 rats, cited from earlier work
[3] = convulsions, read-out: Combined ATN test in rats ED₅₀ values (TRY) convulsions
[4] = hyperaemia, read-out: Combined ATN test in rats ED₅₀ values (TRY) hyperaemia

SMILES | ED50 (compound 48/80 [1]) | ED50 (Norepinephrine) | ED50 (compound 48/80 [2]) | ED50 (Apomorphine) | ED50 (Tryptamine; [3]) | ED50 (Tryptamine; [4]) | effect on SWS2 (Wistar rats; 0.63 mg/kg, for 8 h, at the expense of W, SWS1 and PS) | effects on sleep-wakefulness patterns (Wistar rats; doses of 0.04 and 0.16 mg/kg)
Cc1nc2n(C)ncn2c(=O)c1CCN1CCC(c2noc3cc(F)ccc23)CC1 [Compound 89] | 0.16 mg/kg | 0.31 mg/kg | 0.02 mg/kg | 0.08 mg/kg | 0.08 mg/kg | ≤ 0.0025 mg/kg | – | –
Cc1nc2n(C)c(C)cn2c(=O)c1CCN1CCN(c2noc3ccccc23)CC1 [Compound 111] | 0.16 mg/kg | 0.31 mg/kg | – | 0.08 mg/kg | 0.31 mg/kg | 0.005 mg/kg | – | –
CC1=NN(C)c2nc(C)c(CCN3CCN(c4noc5ccccc45)CC3)c(=O)n2C1 [Compound 112] | 0.04 mg/kg | 0.63 mg/kg | 0.16 mg/kg | 0.08 mg/kg | 0.31 mg/kg | 0.005 mg/kg | – | –
Cc1nc2n(C)nc(C)n2c(=O)c1CCN1CCN(c2noc3ccccc23)CC1 [Compound 113] | 0.08 mg/kg | 1.25 mg/kg | – | 0.08 mg/kg | 0.31 mg/kg | 0.005 mg/kg | – | –
Cc1nc2n(C)ncn2c(=O)c1CCN1CCN(c2noc3ccccc23)CC1 [Compound 114] | 0.16 mg/kg | 1.25 mg/kg | – | 0.08 mg/kg | 0.31 mg/kg | ≤ 0.04 mg/kg | – | –
Cc1nc2n(c(=O)c1CCN1CCN(c3noc4ccccc34)CC1)CCN2C [Compound 115] | 0.02 mg/kg | 1.25 mg/kg | 0.04 mg/kg | 0.08 mg/kg | 0.31 mg/kg | 0.005 mg/kg | – | –
Cc1nc2n(c(=O)c1CCN1CCN(c3noc4ccccc34)CC1)CCCN2C [Compound 120] | 0.63 mg/kg | 1.25 mg/kg | 0.01 mg/kg | 0.02 mg/kg | 0.08 mg/kg | 0.02 mg/kg | – | –
Cc1nc2n(C)ccn2c(=O)c1CCN1CCN(c2nsc3ccccc23)CC1 [Compound 124] | 0.04 mg/kg | 5 mg/kg | 0.31 mg/kg | 0.08 mg/kg | 0.02 mg/kg | 0.00125 mg/kg | – | –
Cc1nc2sccn2c(=O)c1CCN1CCC(=C(c2ccc(F)cc2)c2ccc(F)cc2)CC1 [ritanserin, 6-[2-[4-[bis(4-fluorophenyl)methylene]-1-piperidinyl]ethyl]-7-methyl-5H-thiazolo[3,2-a]pyrimidin-5-one] | – | – | – | – | – | – | significant increase of SWS2 | no major effects on sleep-wakefulness patterns
